Results reported in patent US11072588B2, “Barbituric acid derivatives comprising cationic and lipophilic groups” (UNIVERSITETET I TROMSØ—NORGES ARKTISKE UNIVERSITET, priority 2017, dated 2021).
≈ marks a conversion by molar mass, not a printed value.

Legend:
[1] = Determination of haemolytic activity; type: cell-based; conditions: human red blood cells (washed, from heparinized fresh blood); human RBCs, 1 h, 37° C.; read-out: RBC: haemolytic activity against human RBCs (EC50)
Procedure: Hemolysis was determined using a heparinized fraction (1000 IU/mL) of freshly drawn blood. Blood collected in EDTA containing test tubes (Vacutest®, KIMA, Arzergrande, Italy) was used for determination of the hematocrit (hct). The heparinized blood was washed 3× with pre-warmed PBS and adjusted to a final hct of 4%. Derivatives in DMSO (50 mM) were added to a 96-well polypropylene V-bottom plate (NUNC, Fisher Scientific, Oslo, Norway) and serially diluted. The test concentration range was 500-4 μM with DMSO contents ≤1%. A solution of 1% triton X-100 was used as positive control for 100% hemolysis. As negative control a solution of 1% DMSO in PBS buffer was included. No signs of DMSO toxicity were detected. RBCs (1% v/v final concentration) were added to the well plate and incubated at 37° C. and 800 rpm for 1 h. After centrifugation (5 min, 3000 g), 100 μL of each well were transferred to a 96-well flat bottom plate and absorbance was measured at 545 nm with a microplate reader (VersaMax™, Molecular Devices, Sunnyvale, Calif., USA). The percentage of hemolysis was calculated as the ratio of the absorbance in the derivative-treated and surfactant treated samples, corrected for the PBS background. Three independent experiments were performed and EC50 values are presented as averages.

[2] = system: E. faecium 50901530; assay: MIC, multi-resistant clinical isolate; type: cell-based, Enterococcus faecium; conditions: for MIC: Enterococcus faecium, read-out: Antimicrobial activity (MIC); for selectivity index (EC50/MIC): RBC EC50 / MIC
Procedure: (§1) Working solutions of the test derivatives were prepared with up to 100% DMSO and stored at −20° C. If necessary, the solutions were heated to 40-80° C. before testing to facilitate complete dissolution. Double-distilled water was used in all dilutions prepared. […] A microdilution susceptibility test was used for MIC determination according to Clinical and Laboratory Standards Institute, “Methods for Dilution Antimicrobial Sisceptibility Tests for Bacteria That Graw Aerobically”, Approved Standard M07-A9, edition 2012, with modifications as described by Igumnova et al (Bioorg Med Chem, 2016, 24 (22), 5884-5894).
(§2) Briefly, the bacterial inoculum was adjusted to approximately 2.5-3×10^4 cells/mL in Mueller-Hinton broth (MHB, Difco Laboratories, USA), and incubated in a ratio of 1:1 with test derivatives in polystyrene 96-well flat-bottom microplates (NUNC, Roskilde, Denmark). Positive growth control (without test derivatives) and negative control (without bacteria) were included. The reference antibiotic was oxytetracycline hydrochloride (Sigma Aldrich, Saint Louis, Mo., USA). The microplates were incubated in an EnVision microplate reader (Perkin-Elmer, Turku, Finland) placed in an incubator set to 35° C. for 48 h. The MIC value was defined as the lowest concentration of derivative resulting in no bacterial growth as determined by OD600 measurement. All derivatives were tested in three parallels.
(§3) The MIC was determined as explained above with some exceptions; working solutions of test derivatives were prepared from concentrated DMSO stocks stored at room temperature, the density of the bacterial inoculum was increased 40× to 1-1.2×10^6 cells/mL, enterococci were incubated in Brain Heart Infusion broth (BHIB, Difco Laboratories, USA), the microplates were incubated for 24 h, and the derivatives were tested in four parallels.

[3] = system: E. faecium K36-18; assay: MIC, multi-resistant clinical isolate; type: cell-based, Enterococcus faecium; conditions: for MIC: Enterococcus faecium, K3618, read-out: Antimicrobial activity (MIC); for selectivity index (EC50/MIC): RBC EC50 / MIC, E. faecium K36-18
Procedure: as §1, §2, §3

[4] = system: E. faecium TUH50-22; assay: MIC, multi-resistant clinical isolate; type: cell-based, Enterococcus faecium; conditions: for MIC: Enterococcus faecium, TUH5022, read-out: Antimicrobial activity (MIC); for selectivity index (EC50/MIC): RBC EC50 / MIC
Procedure: as §1, §2, §3

[5] = system: E. faecium 50758899; assay: MIC, multi-resistant clinical isolate; type: cell-based, Enterococcus faecium; conditions: for MIC: Enterococcus faecium, read-out: Antimicrobial activity (MIC); for selectivity index (EC50/MIC): RBC EC50 / MIC
Procedure: as §1, §2, §3

[6] = system: E. faecium 50673722; assay: MIC, multi-resistant clinical isolate; type: cell-based, Enterococcus faecium; conditions: for MIC: Enterococcus faecium, read-out: Antimicrobial activity (MIC); for selectivity index (EC50/MIC): RBC EC50 / MIC
Procedure: as §1, §2, §3

[7] = system: S. aureus N315; assay: MIC, multi-resistant clinical isolate; type: cell-based, Staphylococcus aureus; conditions: for selectivity index (EC50/MIC): RBC EC50 / MIC, S. aureus N315; for MIC: Staphylococcus aureus, N315, read-out: Antimicrobial activity (MIC)
Procedure: as §1, §2, §3

[8] = system: S. aureus IHT 99040; assay: MIC, multi-resistant clinical isolate; type: cell-based, Staphylococcus aureus; conditions: for selectivity index (EC50/MIC): RBC EC50 / MIC; for MIC: Staphylococcus aureus, IHT99040, read-out: Antimicrobial activity (MIC)
Procedure: as §1, §2, §3

[9] = system: S. aureus strain 85/2082; assay: MIC, multi-resistant clinical isolate; type: cell-based, Staphylococcus aureus; conditions: for selectivity index (EC50/MIC): RBC EC50 / MIC, S. aureus strain 85/2082; for MIC: Staphylococcus aureus, 85/2082, read-out: Antimicrobial activity (MIC)
Procedure: as §1, §2, §3

[10] = system: S. aureus strain WIS; assay: MIC, multi-resistant clinical isolate; type: cell-based, Staphylococcus aureus; conditions: for selectivity index (EC50/MIC): RBC EC50 / MIC, S. aureus strain WIS; for MIC: Staphylococcus aureus, read-out: Antimicrobial activity (MIC)
Procedure: as §1, §2, §3

[11] = system: S. aureus NCTC 10442; assay: MIC, multi-resistant clinical isolate; type: cell-based, Staphylococcus aureus; conditions: for selectivity index (EC50/MIC): RBC EC50 / MIC, S. aureus NCTC 10442; for MIC: Staphylococcus aureus, NCTC10442, read-out: Antimicrobial activity (MIC)
Procedure: as §1, §2, §3

[12] = system: A. baumanii K12-21; assay: MIC, multi-resistant clinical isolate; type: cell-based, Acinetobacter baumannii; conditions: for MIC: Acinetobacter baumannii, K1221, read-out: Antimicrobial activity (MIC); for selectivity index (EC50/MIC): RBC EC50 / MIC
Procedure: as §1, §2, §3

[13] = system: A. baumanii K55-13; assay: MIC, multi-resistant clinical isolate; type: cell-based, Acinetobacter baumannii; conditions: for MIC: Acinetobacter baumannii, K5513, read-out: Antimicrobial activity (MIC); for selectivity index (EC50/MIC): RBC EC50 / MIC
Procedure: as §1, §2, §3

[14] = system: A. baumanii K47-42; assay: MIC, multi-resistant clinical isolate; type: cell-based, Acinetobacter baumannii; conditions: for MIC: Acinetobacter baumannii, K4742, read-out: Antimicrobial activity (MIC); for selectivity index (EC50/MIC): RBC EC50 / MIC
Procedure: as §1, §2, §3

[15] = system: A. baumanii K44-35; assay: MIC, multi-resistant clinical isolate; type: cell-based, Acinetobacter baumannii; conditions: for MIC: Acinetobacter baumannii, K4435, read-out: Antimicrobial activity (MIC); for selectivity index (EC50/MIC): RBC EC50 / MIC
Procedure: as §1, §2, §3

[16] = system: S. epidermidis; assay: Anti-biofilm activity (inhibition of biofilm formation); type: cell-based; conditions: Staphylococcus epidermidis, read-out: Anti-biofilm IC50

SMILES | EC50 at 1 h [1] [µg/mL] | MIC [2] [µg/mL] | selectivity index (EC50/MIC) [2] | MIC [3] [µg/mL] | selectivity index (EC50/MIC) [3] | MIC [4] [µg/mL] | selectivity index (EC50/MIC) [4] | MIC [5] [µg/mL] | selectivity index (EC50/MIC) [5] | MIC [6] [µg/mL] | selectivity index (EC50/MIC) [6] | selectivity index (EC50/MIC) [7] | MIC [7] [µg/mL] | selectivity index (EC50/MIC) [8] | MIC [8] [µg/mL] | selectivity index (EC50/MIC) [9] | MIC [9] [µg/mL] | selectivity index (EC50/MIC) [10] | MIC [10] [µg/mL] | selectivity index (EC50/MIC) [11] | also measured
NCCCCN1C(=O)N(CCCCN)C(=O)C(Cc2cc(C(F)(F)F)cc(C(F)(F)F)c2)(Cc2cc(C(F)(F)F)cc(C(F)(F)F)c2)C1=O [7(vi)] | 183 (≈ 253 µM) | 8 (≈ 11.1 µM) | (23) | 16 (≈ 22.1 µM) | (11) | 8 (≈ 11.1 µM) | (23) | 16 (≈ 22.1 µM) | (11) | 8 (≈ 11.1 µM) | (23) | (11) | 16 (≈ 22.1 µM) | (11) | 16 (≈ 22.1 µM) | (11) | 16 (≈ 22.1 µM) | (11) | 16 (≈ 22.1 µM) | (11) | MIC [11]: 16 µg/mL (≈ 22.1 µM); MIC [12]: 16 µg/mL (≈ 22.1 µM); selectivity index (EC50/MIC) [12]: (11); MIC [13]: 32 µg/mL (≈ 44.3 µM); selectivity index (EC50/MIC) [13]: (6); MIC [14]: 32 µg/mL (≈ 44.3 µM); selectivity index (EC50/MIC) [14]: (6); MIC [15]: 32 µg/mL (≈ 44.3 µM); selectivity index (EC50/MIC) [15]: (6)
N=C(N)NCCCCN1C(=O)N(CCCCNC(=N)N)C(=O)C(Cc2ccc3ccccc3c2)(Cc2ccc3ccccc3c2)C1=O [8(iv), 1,1′-(4,4′-(5,5-bis(naphthalen-2-ylmethyl)-2,4,6-trioxodihydropyrimidine-1,3(2H,4H)-diyl)bis(butane-4,1-diyl))-diguanidine] | 133 (≈ 210 µM) | 8 (≈ 12.6 µM) | (17) | 16 (≈ 25.2 µM) | (8) | 8 (≈ 12.6 µM) | (17) | 16 (≈ 25.2 µM) | (8) | 16 (≈ 25.2 µM) | (8) | (17) | 8 (≈ 12.6 µM) | (17) | 8 (≈ 12.6 µM) | (17) | 8 (≈ 12.6 µM) | (17) | 8 (≈ 12.6 µM) | (17) | IC50 [16]: 1 µg/mL (≈ 1.58 µM); MIC [11]: 8 µg/mL (≈ 12.6 µM); MIC [12]: 32 µg/mL (≈ 50.4 µM); selectivity index (EC50/MIC) [12]: (4); MIC [13]: 32 µg/mL (≈ 50.4 µM); selectivity index (EC50/MIC) [13]: (4); MIC [14]: 32 µg/mL (≈ 50.4 µM); selectivity index (EC50/MIC) [14]: (4); MIC [15]: 32 µg/mL (≈ 50.4 µM); selectivity index (EC50/MIC) [15]: (4)
